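In this assay, cells in 96-well plates receive the compound at five concentrations for 48 hours. Endpoints are linearly interpolated between the surrounding concentrations. TGI denotes the concentration required for complete inhibition of growth.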
Experiments:
Experiment in all cases: growth of human tumour cells (NCI), 48 h
OVCAR-4 ovarian = test system: OVCAR-4 ovarian
RXF 393 renal = test system: RXF 393 renal
UO-31 renal = test system: UO-31 renal
A549 NSCLC = test system: A549 NSCLC
UACC-62 melanoma = test system: UACC-62 melanoma
UACC-257 melanoma = test system: UACC-257 melanoma
A498 renal = test system: A498 renal
HCT-15 colon = test system: HCT-15 colon
SW-620 colon = test system: SW-620 colon
U251 CNS = test system: U251 CNS
HL-60(TB) leukemia = test system: HL-60(TB) leukemia
TK-10 renal = test system: TK-10 renal
HCC-2998 colon = test system: HCC-2998 colon
786-0 renal = test system: 786-0 renal
CCRF-CEM leukemia = test system: CCRF-CEM leukemia
KM12 colon = test system: KM12 colon
DMS 273 small cell lung = test system: DMS 273 small cell lung
M14 melanoma = test system: M14 melanoma
NCI-H522 lung = test system: NCI-H522 lung
KM20L2 colon = test system: KM20L2 colon
SR leukemia = test system: SR leukemia
HT29 colon = test system: HT29 colon
OVCAR-5 ovarian = test system: OVCAR-5 ovarian
SNB-78 CNS = test system: SNB-78 CNS
NCI-H460 lung = test system: NCI-H460 lung
SK-MEL-28 melanoma = test system: SK-MEL-28 melanoma
SK-MEL-5 melanoma = test system: SK-MEL-5 melanoma
K-562 leukemia = test system: K-562 leukemia
ACHN renal = test system: ACHN renal
LOX IMVI melanoma = test system: LOX IMVI melanoma
RPMI-8226 leukemia = test system: RPMI-8226 leukemia
OVCAR-3 ovarian = test system: OVCAR-3 ovarian
IGROV1 ovarian = test system: IGROV1 ovarian
LXFL 529 NSCLC = test system: LXFL 529 NSCLC
SK-OV-3 ovarian = test system: SK-OV-3 ovarian
DMS 114 small cell lung = test system: DMS 114 small cell lung
HCT-116 colon = test system: HCT-116 colon
HOP-18 NSCLC = test system: HOP-18 NSCLC
HOP-62 NSCLC = test system: HOP-62 NSCLC
SNB-75 CNS = test system: SNB-75 CNS
SF-295 CNS = test system: SF-295 CNS
SF-268 CNS = test system: SF-268 CNS
HOP-92 NSCLC = test system: HOP-92 NSCLC
DLD-1 colon = test system: DLD-1 colon
OVCAR-8 ovarian = test system: OVCAR-8 ovarian
SK-MEL-2 melanoma = test system: SK-MEL-2 melanoma
NCI-H226 lung = test system: NCI-H226 lung
CAKI-1 renal = test system: CAKI-1 renal
EKVX NSCLC = test system: EKVX NSCLC
NCI-H23 lung = test system: NCI-H23 lung
COLO 205 colon = test system: COLO 205 colon
SNB-19 CNS = test system: SNB-19 CNS
M19-MEL melanoma = test system: M19-MEL melanoma
SN12C renal = test system: SN12C renal
MOLT-4 leukemia = test system: MOLT-4 leukemia
MALME-3M melanoma = test system: MALME-3M melanoma
XF 498 CNS = test system: XF 498 CNS
SF-539 CNS = test system: SF-539 CNS

Question: What does the source list for C/C=C1\Oc2ccc(OC)cc2S1(=O)=O?
Answer: TGI (OVCAR-4 ovarian): > 100 µM; TGI (RXF 393 renal): > 100 µM; TGI (UO-31 renal): > 100 µM; TGI (A549 NSCLC): > 100 µM; TGI (UACC-62 melanoma): > 100 µM; TGI (UACC-257 melanoma): > 100 µM; TGI (A498 renal): > 100 µM; TGI (HCT-15 colon): > 100 µM; TGI (SW-620 colon): > 100 µM; TGI (U251 CNS): > 100 µM; TGI (HL-60(TB) leukemia): > 100 µM; TGI (TK-10 renal): > 100 µM; TGI (HCC-2998 colon): > 100 µM; TGI (786-0 renal): > 100 µM; TGI (CCRF-CEM leukemia): > 100 µM; TGI (KM12 colon): > 100 µM; TGI (DMS 273 small cell lung): > 100 µM; TGI (M14 melanoma): > 100 µM; TGI (NCI-H522 lung): > 100 µM; TGI (KM20L2 colon): > 100 µM; TGI (SR leukemia): > 100 µM; TGI (HT29 colon): > 100 µM; TGI (OVCAR-5 ovarian): > 100 µM; TGI (SNB-78 CNS): > 100 µM; TGI (NCI-H460 lung): > 100 µM; TGI (SK-MEL-28 melanoma): > 100 µM; TGI (SK-MEL-5 melanoma): > 100 µM; TGI (K-562 leukemia): > 100 µM; TGI (ACHN renal): > 100 µM; TGI (LOX IMVI melanoma): > 100 µM; TGI (RPMI-8226 leukemia): > 100 µM; TGI (OVCAR-3 ovarian): > 100 µM; TGI (IGROV1 ovarian): > 100 µM; TGI (LXFL 529 NSCLC): > 100 µM; TGI (SK-OV-3 ovarian): > 100 µM; TGI (DMS 114 small cell lung): > 100 µM; TGI (HCT-116 colon): > 100 µM; TGI (HOP-18 NSCLC): > 100 µM; TGI (HOP-62 NSCLC): > 100 µM; TGI (SNB-75 CNS): > 100 µM; TGI (SF-295 CNS): > 100 µM; TGI (SF-268 CNS): > 100 µM; TGI (HOP-92 NSCLC): > 100 µM; TGI (DLD-1 colon): > 100 µM; TGI (OVCAR-8 ovarian): > 100 µM; TGI (SK-MEL-2 melanoma): > 100 µM; TGI (NCI-H226 lung): > 100 µM; TGI (CAKI-1 renal): > 100 µM; TGI (EKVX NSCLC): > 100 µM; TGI (NCI-H23 lung): > 100 µM; TGI (COLO 205 colon): > 100 µM; TGI (SNB-19 CNS): > 100 µM; TGI (M19-MEL melanoma): > 100 µM; TGI (SN12C renal): > 100 µM; TGI (MOLT-4 leukemia): > 100 µM; TGI (MALME-3M melanoma): > 100 µM

Question: How did the TGI (OVCAR-4 ovarian) turn out when [O-]c1c2c(nn1-c1ccc(F)cc1)c1ccccc1c[n+]2Cc1ccccc1 was run?
Answer: The TGI was 66.2 µM.

Question: What about the TGI (RXF 393 renal) of the same compound?
Answer: Its TGI is 33.7 µM.

Question: And the TGI (UO-31 renal)?
Answer: Its TGI is 54.9 µM.

Question: What about the TGI (A549 NSCLC) of the same compound?
Answer: The TGI was 73.1 µM.

Question: And the TGI (UACC-62 melanoma)?
Answer: The TGI was 14.2 µM.

Question: What about the TGI (UACC-257 melanoma) of the same compound?
Answer: The TGI was 30.3 µM.

Question: What about the TGI (A498 renal) of the same compound?
Answer: The TGI was 85.3 µM.

Question: What about the TGI (HCT-15 colon) of the same compound?
Answer: The TGI was 39.1 µM.

Question: What about the TGI (SW-620 colon) of the same compound?
Answer: The TGI was 48.7 µM.

Question: And the TGI (U251 CNS)?
Answer: The TGI was 33.4 µM.

Question: And the TGI (XF 498 CNS)?
Answer: Its TGI is 45.2 µM.

Question: And the TGI (HL-60(TB) leukemia)?
Answer: The TGI was 11.1 µM.

Question: What about the TGI (TK-10 renal) of the same compound?
Answer: Its TGI is 83 µM.

Question: And the TGI (HCC-2998 colon)?
Answer: The TGI was 24.8 µM.

Question: And the TGI (CCRF-CEM leukemia)?
Answer: The TGI was 33.7 µM.

Question: What about the TGI (KM12 colon) of the same compound?
Answer: The TGI was 25 µM.

Question: And the TGI (M14 melanoma)?
Answer: The TGI was 15.3 µM.

Question: And the TGI (NCI-H522 lung)?
Answer: Its TGI is 21.3 µM.

Question: What about the TGI (KM20L2 colon) of the same compound?
Answer: The TGI was 25.9 µM.

Question: What about the TGI (SR leukemia) of the same compound?
Answer: Its TGI is 41.9 µM.

Question: And the TGI (HT29 colon)?
Answer: The TGI was 27.1 µM.

Question: What about the TGI (OVCAR-5 ovarian) of the same compound?
Answer: Its TGI is 41.3 µM.

Question: And the TGI (SNB-78 CNS)?
Answer: The TGI was 35.4 µM.

Question: And the TGI (NCI-H460 lung)?
Answer: The TGI was 29.7 µM.

Question: What about the TGI (SK-MEL-28 melanoma) of the same compound?
Answer: Its TGI is 34 µM.

Question: And the TGI (SK-MEL-5 melanoma)?
Answer: The TGI was 13.4 µM.

Question: And the TGI (K-562 leukemia)?
Answer: Its TGI is 81.4 µM.

Question: What about the TGI (ACHN renal) of the same compound?
Answer: Its TGI is 28 µM.

Question: What about the TGI (RPMI-8226 leukemia) of the same compound?
Answer: The TGI was 47.1 µM.

Question: What about the TGI (OVCAR-3 ovarian) of the same compound?
Answer: Its TGI is 22.1 µM.

Question: What about the TGI (IGROV1 ovarian) of the same compound?
Answer: Its TGI is 30.6 µM.

Question: And the TGI (SF-539 CNS)?
Answer: Its TGI is 8.57 µM.

Question: And the TGI (LXFL 529 NSCLC)?
Answer: The TGI was 18.8 µM.

Question: What about the TGI (SK-OV-3 ovarian) of the same compound?
Answer: Its TGI is 41.8 µM.

Question: And the TGI (DMS 114 small cell lung)?
Answer: Its TGI is 32.9 µM.

Question: What about the TGI (HCT-116 colon) of the same compound?
Answer: The TGI was 32.9 µM.

Question: And the TGI (HOP-62 NSCLC)?
Answer: Its TGI is 32.1 µM.

Question: And the TGI (SNB-75 CNS)?
Answer: The TGI was 60.5 µM.

Question: What about the TGI (SF-295 CNS) of the same compound?
Answer: Its TGI is 40.4 µM.

Question: What about the TGI (SF-268 CNS) of the same compound?
Answer: The TGI was 40.7 µM.

Question: And the TGI (HOP-92 NSCLC)?
Answer: Its TGI is 57.9 µM.

Question: And the TGI (DLD-1 colon)?
Answer: The TGI was 43.7 µM.

Question: What about the TGI (OVCAR-8 ovarian) of the same compound?
Answer: Its TGI is 61.9 µM.

Question: And the TGI (SK-MEL-2 melanoma)?
Answer: Its TGI is 9.23 µM.

Question: What about the TGI (NCI-H226 lung) of the same compound?
Answer: Its TGI is 47.4 µM.

Question: What about the TGI (CAKI-1 renal) of the same compound?
Answer: The TGI was 94.7 µM.

Question: What about the TGI (EKVX NSCLC) of the same compound?
Answer: Its TGI is 56.4 µM.

Question: And the TGI (NCI-H23 lung)?
Answer: Its TGI is 55.8 µM.

Question: And the TGI (COLO 205 colon)?
Answer: Its TGI is 4.52 µM.

Question: What about the TGI (SNB-19 CNS) of the same compound?
Answer: Its TGI is over 100 µM.

Question: What about the TGI (SN12C renal) of the same compound?
Answer: Its TGI is 52.5 µM.

Question: And the TGI (MOLT-4 leukemia)?
Answer: The TGI was 81.5 µM.

Question: And the TGI (MALME-3M melanoma)?
Answer: Its TGI is 25.6 µM.

From PubChem BioAssay (NCI)
